In US8192962B2, “Processes for detecting toxic substances” (Daikin Industries, Ltd., priority 2001, dated 2012):

System: Energy system protein genes
Test: DNA chip mRNA expression in yeast, energy system protein genes (Table 4)
Type: cell-based, Saccharomyces cerevisiae S288C
Experimental: Yeast (Saccharomyces cerevisiae S288C (α SUC2mal mel gap2 CUP1)) were incubated at 25° C. on YPD medium (yeast extract 1%, polypepton 2%, glucose 2%). One of toxic chemical substances was added to the cells at logarithmic growth phase, and the cells were further incubated for two hours. Cells were cultured without any chemical substance in the same condition, and were used as control. Concentrations of the chemical substances were defined to inhibit the growth of the yeast but not lead to death.
After completion of the incubation, the culture was centrifuged to collect the cells. To the cells, sodium acetate buffer (50 mM sodium acetate, 10 mM EDTA, 1% SDS) was added, and the mixture was shaken at 65° C. for five minutes, followed by returning to room temperature, and obtaining the supernatant, of which the procedures were repeated two times. To the supernatant, ½ amount of a solution of phenol/chloroform was added, and the mixture was centrifuged to give a supernatant, which was added with an equal amount of chloroform, and the mixture was centrifuged to give a supernatant. To the supernatant, an equal amount of isopropanol containing 0.3 M sodium acetate was added, and the mixture was allowed to stand at room temperature for 30 minutes, after which the mixture was centrifuged to give a sediment of the whole RNAs. Seventy % ethanol was added to the sediment, and the mixture was again centrifuged to give a sediment, which was then dried and dissolved in water. mRNA was isolated from the whole RNAs as followings. In view of the fact that a poly A chain is attached to the 3′ terminus of mRNA, a polynucleotide having a poly T structure which was immobilized on the surface of latex beads was used to trap the mRNA, and then the mRNA was washed and eluted with spine column (Oligotex-dT30<Super>mRNA Purification Kit, Takara). Reverse transcription of the mRNA was conducted with a reverse transcriptase (Super Script II Reverse Transcriptase; catalogue No. 18064-014, GibcoBRL) using fluorescence-labeled nucleotides to give cDNAs that were introduced with Cy3-dUTP or Cy5-dUTP during the reverse transcription.
The labeled cDNAs were dissolved in TE buffer (10mM Tris-HCl/1 mM EDTA, pH8.0), and the solution was dropped on the DNA chip containing the whole genes of yeast (DNA Chip Research Inc. Japan) so that the cDNAs were hybridized on the DNA chip at 65° C. for over 12 hours. The fluoresces intensity of the DNA chip was read with a scanner, and the ratio relative to the fluorescence intensity resulting from the absence of chemical substance was estimated as the following, which is shown in Tables 1 to 9: […]

For `[Cl][Cd][Cl]` [(2), CdCl2], the “The level of expressed mRNA in the presence of chemical substance/The level of expressed mRNA in the absence of chemical substance” value (yeast gene YAL060W) was 1.8, the “The level of expressed mRNA in the presence of chemical substance/The level of expressed mRNA in the absence of chemical substance” value (yeast gene YBL058W, cells incubated two hours with the chemical substance) was 1.5 and the “The level of expressed mRNA in the presence of chemical substance/The level of expressed mRNA in the absence of chemical substance” value (yeast gene YBL099W, cells incubated two hours with the chemical substance) was 0.9. The “The level of expressed mRNA in the presence of chemical substance/The level of expressed mRNA in the absence of chemical substance” value (yeast gene YBR001C, cells incubated two hours with the chemical substance) was 1.4, the “The level of expressed mRNA in the presence of chemical substance/The level of expressed mRNA in the absence of chemical substance” value (yeast gene YBR185C, cells incubated two hours with the chemical substance) was 1.0 and the “The level of expressed mRNA in the presence of chemical substance/The level of expressed mRNA in the absence of chemical substance” value (yeast gene YBR221C, cells incubated two hours with the chemical substance) was 0.7. The “The level of expressed mRNA in the presence of chemical substance/The level of expressed mRNA in the absence of chemical substance” value (yeast gene YCL040W) was 5.6, the “The level of expressed mRNA in the presence of chemical substance/The level of expressed mRNA in the absence of chemical substance” value (yeast gene YCR012W) was 1.5 and the “The level of expressed mRNA in the presence of chemical substance/The level of expressed mRNA in the absence of chemical substance” value (yeast gene YCR046C, cells incubated two hours with the chemical substance) was 1.2. For the same molecule, the “The level of expressed mRNA in the presence of chemical substance/The level of expressed mRNA in the absence of chemical substance” value (yeast gene YCR105W, cells incubated two hours with the chemical substance) was 1.2, the “The level of expressed mRNA in the presence of chemical substance/The level of expressed mRNA in the absence of chemical substance” value (yeast gene YDL021W) was 1.7 and the “The level of expressed mRNA in the presence of chemical substance/The level of expressed mRNA in the absence of chemical substance” value (yeast gene YDL067C, cells incubated two hours with the chemical substance) was 1.0. For the same molecule, the “The level of expressed mRNA in the presence of chemical substance/The level of expressed mRNA in the absence of chemical substance” value (yeast gene YDL078C, cells incubated two hours with the chemical substance) was 1.1, the “The level of expressed mRNA in the presence of chemical substance/The level of expressed mRNA in the absence of chemical substance” value (yeast gene YDL107W, cells incubated two hours with the chemical substance) was 1.3 and the “The level of expressed mRNA in the presence of chemical substance/The level of expressed mRNA in the absence of chemical substance” value (yeast gene YDL174C) was 1.8. For the same molecule, the “The level of expressed mRNA in the presence of chemical substance/The level of expressed mRNA in the absence of chemical substance” value (yeast gene YDL181W, cells incubated two hours with the chemical substance) was 1.8, the “The level of expressed mRNA in the presence of chemical substance/The level of expressed mRNA in the absence of chemical substance” value (yeast gene YDR001C) was 2.2 and the “The level of expressed mRNA in the presence of chemical substance/The level of expressed mRNA in the absence of chemical substance” value (yeast gene YDR050C, cells incubated two hours with the chemical substance) was 1.3. For the same molecule, the “The level of expressed mRNA in the presence of chemical substance/The level of expressed mRNA in the absence of chemical substance” value (yeast gene YDR079W, cells incubated two hours with the chemical substance) was 1.1, the “The level of expressed mRNA in the presence of chemical substance/The level of expressed mRNA in the absence of chemical substance” value (yeast gene YDR178W, cells incubated two hours with the chemical substance) was 2.0 and the “The level of expressed mRNA in the presence of chemical substance/The level of expressed mRNA in the absence of chemical substance” value (yeast gene YDR231C) was 1.6. For the same molecule, the “The level of expressed mRNA in the presence of chemical substance/The level of expressed mRNA in the absence of chemical substance” value (yeast gene YDR298C, cells incubated two hours with the chemical substance) was 1.2, the “The level of expressed mRNA in the presence of chemical substance/The level of expressed mRNA in the absence of chemical substance” value (yeast gene YDR377W, cells incubated two hours with the chemical substance) was 1.1 and the “The level of expressed mRNA in the presence of chemical substance/The level of expressed mRNA in the absence of chemical substance” value (yeast gene YDR529C, cells incubated two hours with the chemical substance) was 1.0. For the same molecule, the “The level of expressed mRNA in the presence of chemical substance/The level of expressed mRNA in the absence of chemical substance” value (yeast gene YEL024W, cells incubated two hours with the chemical substance) was 0.9, the “The level of expressed mRNA in the presence of chemical substance/The level of expressed mRNA in the absence of chemical substance” value (yeast gene YEL039C, cells incubated two hours with the chemical substance) was 0.7 and the “The level of expressed mRNA in the presence of chemical substance/The level of expressed mRNA in the absence of chemical substance” value (yeast gene YER178W) was 0.9. For the same molecule, the “The level of expressed mRNA in the presence of chemical substance/The level of expressed mRNA in the absence of chemical substance” value (yeast gene YFL057C) was 5.9, the “The level of expressed mRNA in the presence of chemical substance/The level of expressed mRNA in the absence of chemical substance” value (yeast gene YFR053C) was 1.4 and the “The level of expressed mRNA in the presence of chemical substance/The level of expressed mRNA in the absence of chemical substance” value (yeast gene YGL018C, cells incubated two hours with the chemical substance) was 1.0. The “The level of expressed mRNA in the presence of chemical substance/The level of expressed mRNA in the absence of chemical substance” value (yeast gene YGL062W) was 1.3, the “The level of expressed mRNA in the presence of chemical substance/The level of expressed mRNA in the absence of chemical substance” value (yeast gene YGL187C, cells incubated two hours with the chemical substance) was 0.8 and the “The level of expressed mRNA in the presence of chemical substance/The level of expressed mRNA in the absence of chemical substance” value (yeast gene YGL191W, cells incubated two hours with the chemical substance) was 1.6. The “The level of expressed mRNA in the presence of chemical substance/The level of expressed mRNA in the absence of chemical substance” value (yeast gene YGL205W, cells incubated two hours with the chemical substance) was 0.9, the “The level of expressed mRNA in the presence of chemical substance/The level of expressed mRNA in the absence of chemical substance” value (yeast gene YGL256W, cells incubated two hours with the chemical substance) was 5.3 and the “The level of expressed mRNA in the presence of chemical substance/The level of expressed mRNA in the absence of chemical substance” value (yeast gene YGR043C) was 3.7. The “The level of expressed mRNA in the presence of chemical substance/The level of expressed mRNA in the absence of chemical substance” value (yeast gene YGR062C, cells incubated two hours with the chemical substance, 25° C., YPD medium) was 1.0, the “The level of expressed mRNA in the presence of chemical substance/The level of expressed mRNA in the absence of chemical substance” value (yeast gene YGR087C, cells incubated two hours with the chemical substance) was 15.0 and the “The level of expressed mRNA in the presence of chemical substance/The level of expressed mRNA in the absence of chemical substance” value (yeast gene YGR174C, cells incubated two hours with the chemical substance) was 1.6. The “The level of expressed mRNA in the presence of chemical substance/The level of expressed mRNA in the absence of chemical substance” value (yeast gene YGR192C) was 1.0, the “The level of expressed mRNA in the presence of chemical substance/The level of expressed mRNA in the absence of chemical substance” value (yeast gene YGR244C) was 1.2 and the “The level of expressed mRNA in the presence of chemical substance/The level of expressed mRNA in the absence of chemical substance” value (yeast gene YGR254W) was 1.3. For the same molecule, the “The level of expressed mRNA in the presence of chemical substance/The level of expressed mRNA in the absence of chemical substance” value (yeast gene YHR179W) was 2.3, the “The level of expressed mRNA in the presence of chemical substance/The level of expressed mRNA in the absence of chemical substance” value (yeast gene YIL160C) was 2.4 and the “The level of expressed mRNA in the presence of chemical substance/The level of expressed mRNA in the absence of chemical substance” value (yeast gene YIR031C, cells incubated two hours with the chemical substance) was 1.6. For the same molecule, the “The level of expressed mRNA in the presence of chemical substance/The level of expressed mRNA in the absence of chemical substance” value (yeast gene YJL052W) was 0.9, the “The level of expressed mRNA in the presence of chemical substance/The level of expressed mRNA in the absence of chemical substance” value (yeast gene YJL121C, cells incubated two hours with the chemical substance) was 0.5 and the “The level of expressed mRNA in the presence of chemical substance/The level of expressed mRNA in the absence of chemical substance” value (yeast gene YJL166W, cells incubated two hours with the chemical substance) was 1.5. The “The level of expressed mRNA in the presence of chemical substance/The level of expressed mRNA in the absence of chemical substance” value (yeast gene YJL216C, cells incubated two hours with the chemical substance) was 4.7 and the “The level of expressed mRNA in the presence of chemical substance/The level of expressed mRNA in the absence of chemical substance” value (yeast gene YJR009C) was 1.7.
